From patent publication US11091482B2, “Isoxazolyl-carbonyloxy azabicyclo[3.2.1]octanyl compounds as FXR activators” (ARDELYX, INC., priority 2016, dated 2021) come the findings set out here.

Assay [1] deals with human Farnesoid X receptor ligand-binding domain/Gal4 DNA binding domain chimera (Homo sapiens (Human), UniProt Q96RI1). Briefly: Cell-based FXR beta-lactamase reporter assay (FXR-UAS-bla HEK 293T cells). The conditions noted are these: for Emax: HEK-293T, read-out: % Efficacy; for EC50 / FXR pEC50 / % Efficacy: cellular FXR beta-lactamase reporter assay; for EC50 / FXR pEC50: -log EC50; for EC50: read-out: FXR pEC50 (converted); for % Efficacy: extent of activation relative to GW4064. In short, it runs like this: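 Stable FXR-UAS-bla HEK 293T cells in phenol red-free DMEM with 2% charcoal-stripped FBS were exposed to 3-fold serial dilutions of compound. Beta-lactamase reporter activity was read by CCF4 FRET loss, exciting at 409 nm with blue emission at 447 nm. The FRET change versus concentration was fit to a 3-parameter logistic equation.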
human Farnesoid X receptor ligand-binding domain/Gal4 DNA binding domain chimera, sequence (Q96RI1 262-486, change not shown): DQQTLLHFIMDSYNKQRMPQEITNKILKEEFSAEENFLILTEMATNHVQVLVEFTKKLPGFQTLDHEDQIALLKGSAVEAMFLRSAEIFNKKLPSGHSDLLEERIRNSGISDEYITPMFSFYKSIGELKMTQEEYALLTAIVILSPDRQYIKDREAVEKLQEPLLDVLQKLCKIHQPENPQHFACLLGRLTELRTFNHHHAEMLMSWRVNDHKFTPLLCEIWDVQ
Background: Reporter assays use an easily measured gene product as a stand-in for the process of interest.

For assay [2], the target named is ligand binding domain of human FXR (Homo sapiens (Human), UniProt Q96RI1). Briefly: FXR ligand binding assay (LanthaScreen FRET).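 On all read-outs here: TR-FRET coactivator recruitment: ligand-induced binding of fluorescein-labelled SRC2-2 peptide to GST-tagged FXR LBD detected via Tb anti-GST antibody, serial compound dilutions, 3-parameter logistic fit.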 Particulars: for FXR pEC50 / EC50 / % Efficacy: FXR ligand binding assay; for FXR pEC50 / EC50: -log EC50; for Emax: read-out: % Efficacy; for EC50: read-out: FXR pEC50 (converted); for % Efficacy: extent of activation relative to GW4064. On the technique in general: In TR-FRET formats the signal depends on donor and acceptor labels being close together.
ligand binding domain of human FXR, sequence (Q96RI1 262-486): as the sequence (Q96RI1 262-486, change not shown) above
Description: The affinity of FXR ligands for the ligand binding domain of FXR was determined using a commercially available human FXR ligand binding assay (LanthaScreen, Thermofisher Cat #PV4833). […] Binding of FXR ligands to the FXR ligand binding domain promotes binding of the fluorescein-labelled SRC2-2 peptide. This causes a FRET signal between the terbium-labelled anti-GST antibody and the fluorescein-labelled SRC peptide which are both bound to the FXR ligand binding domain.
Test compounds are dissolved in DMSO and a 3-fold serial dilution series is generated, then further diluted into assay buffer. The compounds are mixed with 5 nM GST-tagged FXR ligand binding domain, 5 nM Tb-labelled anti-GST antibody and 500 nM fluorcscein-labelled SRC2-2 peptide in a pH 7.4 buffer. The reaction is incubated at room temperature for 1 hour, then the FRET signal is measured as the ratio of the 520 nm/495 nm emission following excitation at 340 nm. The change in FRET signal is plotted against the test article concentration and fit to a 3-parameter logistical equation.

As to `COc1cc(N2[C@@H]3CC[C@H]2C[C@@H](OC(=O)c2c(-c4c(Cl)cccc4Cl)noc2C2CC2)C3)ccc1C(=O)O` [Compound I-39, 4-[(1R,3R,5S)-3-[5-cyclopropyl-3-(2,6-dichlorophenyl)-1,2-oxazole-4-carbonyloxy]-8-azabicyclo[3.2.1]octan-8-yl]-2-methoxybenzoic acid], in assay [1], the Emax was 114% and the EC50 was 100 nM. Moreover, in assay [2], the “FXR pEC50” value was 6.8 and the Emax turned out to be 64%.

Take `COc1cc(C(=O)O)ccc1N1[C@@H]2CC[C@H]1C[C@@H](OC(=O)c1c(-c3c(Cl)cccc3Cl)noc1C1CC1)C2` [Compound I-40, 4-[(1R,3R,5S)-3-[5-cyclopropyl-3-(2,6-dichlorophenyl)-1,2-oxazole-4-carbonyloxy]-8-azabicyclo[3.2.1]octan-8-yl]-3-methoxybenzoic acid]: in assay [1], the Emax was 117% and the EC50 is 39.8 nM. In assay [2], the EC50 is 63.1 nM and the Emax stood at 103%.

As to `O=C(O)c1ccc(N2[C@@H]3CC[C@H]2C[C@@H](OC(=O)c2c(-c4c(Cl)cccc4Cl)noc2C2CC2)C3)cc1F` [Compound I-41, 4-[(1R,3R,5S)-3-[5-cyclopropyl-3-(2,6-dichlorophenyl)-1,2-oxazole-4-carbonyloxy]-8-azabicyclo[3.2.1]octan-8-yl]-2-fluorobenzoic acid], in assay [1], the Emax was determined as 117% and the EC50 is 20 nM. In assay [2], the “FXR pEC50” value was found to be 7.7 and the Emax was determined as 92%.

`O=C(O)c1cc(F)cc(N2[C@@H]3CC[C@H]2C[C@@H](OC(=O)c2c(-c4c(Cl)cccc4Cl)noc2C2CC2)C3)c1` [Compound I-42, 3-[(1R,3R,5S)-3-[5-cyclopropyl-3-(2,6-dichlorophenyl)-1,2-oxazole-4-carbonyloxy]-8-azabicyclo[3.2.1]octan-8-yl]-5-fluorobenzoic acid]: in assay [1], the Emax worked out at 85% and the EC50 is 79.4 nM. Also, in assay [2], the “FXR pEC50” value is on record as 8 and the Emax was 38%.

Take `O=C(O)c1ccc(N2[C@@H]3CC[C@H]2C[C@@H](OC(=O)c2c(-c4c(Cl)cccc4OC(F)F)noc2C2CC2)C3)c(F)c1` [Compound I-43, 4-[(1R,3R,5S)-3-{3-[2-chloro-6-(difluoromethoxy)phenyl]-5-cyclopropyl-1,2-oxazole-4-carbonyloxy}-8-azabicyclo[3.2.1]octan-8-yl]-3-fluorobenzoic Acid]: in assay [1], the Emax is 108% and the EC50 was 39.8 nM. Also, in assay [2], the EC50 was 50.1 nM and the Emax was 72%.

Regarding `CS(=O)(=O)NC(=O)c1ccc(N2[C@@H]3CC[C@H]2C[C@@H](OC(=O)c2c(-c4c(Cl)cccc4Cl)noc2C2CC2)C3)cc1` [Compound I-44, (1R,3R,5S)-8-[4-(methanesulfonylcarbamoyl)phenyl]-8-azabicyclo[3.2.1]octan-3-yl 5-cyclopropyl-3-(2,6-dichlorophenyl)-1,2-oxazole-4-carboxylate], in assay [1], the Emax is 117% and the EC50 is 6.31 nM. For the same molecule, in assay [2], the Emax was 124%.

For `CCCS(=O)(=O)NC(=O)c1ccc(N2[C@@H]3CC[C@H]2C[C@@H](OC(=O)c2c(-c4c(Cl)cccc4Cl)noc2C2CC2)C3)cc1` [Compound I-45, (1R,3R,5S)-8-{4-[(propane-1-sulfonyl)carbamoyl]phenyl}-8-azabicyclo[3.2.1]octan-3-yl 5-cyclopropyl-3-(2,6-dichlorophenyl)-1,2-oxazole-4-carboxylate], in assay [1], the “FXR pEC50” value is reported as 8.6. Moreover, in assay [2], the “FXR pEC50” value stood at 8.3 and the “% Efficacy” value is 130%.

With `CCCCCS(=O)(=O)NC(=O)c1ccc(N2[C@@H]3CC[C@H]2C[C@@H](OC(=O)c2c(-c4c(Cl)cccc4Cl)noc2C2CC2)C3)cc1` [Compound I-46, (1R,3R,5S)-8-{4-[(pentane-1-sulfonyl)carbamoyl]phenyl}-8-azabicyclo[3.2.1]octan-3-yl 5-cyclopropyl-3-(2,6-dichlorophenyl)-1,2-oxazole-4-carboxylate], the “FXR pEC50” value in assay [1] was 8.5; in assay [2] it was 8.2. Also, the “% Efficacy” value in assay [1] is recorded as 110%.

Regarding `CC(C)S(=O)(=O)NC(=O)c1ccc(N2[C@@H]3CC[C@H]2C[C@@H](OC(=O)c2c(-c4c(Cl)cccc4Cl)noc2C2CC2)C3)cc1` [Compound I-47, (1R,3R,5S)-8-{4-[(propane-2-sulfonyl)carbamoyl]phenyl}-8-azabicyclo[3.2.1]octan-3-yl 5-cyclopropyl-3-(2,6-dichlorophenyl)-1,2-oxazole-4-carboxylate], in assay [1], the “FXR pEC50” value is reported as 8.5 and the “% Efficacy” value worked out at 124%. For the same molecule, in assay [2], the “FXR pEC50” value is 7.8 and the “% Efficacy” value came to 168%.

Turning to `O=C(NS(=O)(=O)C1CC1)c1ccc(N2[C@@H]3CC[C@H]2C[C@H](OC(=O)c2c(-c4c(Cl)cccc4Cl)noc2C2CC2)C3)cc1` [Compound I-48, (1R,3S,5S)-8-{4-[(cyclopropanesulfonyl)carbamoyl]phenyl}-8-azabicyclo[3.2.1]octan-3-yl 5-cyclopropyl-3-(2,6-dichlorophenyl)-1,2-oxazole-4-carboxylate], in assay [1], the “FXR pEC50” value is 8.6 and the “% Efficacy” value worked out at 130%. Further, in assay [2], the “FXR pEC50” value was 8.2 and the “% Efficacy” value is reported as 124%.

With `O=C(NS(=O)(=O)CC1CC1)c1ccc(N2[C@@H]3CC[C@H]2C[C@H](OC(=O)c2c(-c4c(Cl)cccc4Cl)noc2C2CC2)C3)cc1` [Compound I-49, (1R,3S,5S)-8-[4-(cyclopropylmethanesulfonylcarbamoyl)phenyl]-8-azabicyclo[3.2.1]octan-3-yl 5-cyclopropyl-3-(2,6-dichlorophenyl)-1,2-oxazole-4-carboxylate], the “FXR pEC50” value in assay [1] was determined as 8.1; in assay [2], 8. In addition, the entries for the “% Efficacy” value in assay [1] and in assay [2] were 107% and 128%, respectively.

With `CS(=O)(=O)NC(=O)c1ccc(N2[C@@H]3CC[C@H]2C[C@@H](OC(=O)c2c(-c4c(Cl)cccc4Cl)noc2C2CC2)C3)c(F)c1` [Compound I-51, (1R,3R,5S)-8-[2-fluoro-4-(methanesulfonylcarbamoyl)phenyl]-8-azabicyclo[3.2.1]octan-3-yl 5-cyclopropyl-3-(2,6-dichlorophenyl)-1,2-oxazole-4-carboxylate], in assay [1], the Emax is 105% and the EC50 is 5.01 nM. Besides, the Emax in assay [2] was determined as 139%.

Consider `CS(=O)(=O)NC(=O)c1ccc(N2[C@@H]3CC[C@H]2C[C@@H](OC(=O)c2c(-c4c(Cl)cccc4Cl)noc2C2CC2)C3)c(Cl)c1` [Compound I-52, (1R,3R,5S)-8-[2-chloro-4-(methanesulfonylcarbamoyl)phenyl]-8-azabicyclo[3.2.1]octan-3-yl 5-cyclopropyl-3-(2,6-dichlorophenyl)-1,2-oxazole-4-carboxylate], for which, in assay [1], the Emax turned out to be 109% and the EC50 is 15.8 nM. In addition, the Emax in assay [2] came out at 110%.

On to `N#Cc1ccc(N2[C@@H]3CC[C@H]2C[C@@H](OC(=O)c2c(-c4c(Cl)cccc4Cl)noc2C2CC2)C3)cc1O` [Compound I-53, (1R,3R,5S)-8-(4-cyano-3-hydroxyphenyl)-8-azabicyclo[3.2.1]octan-3-yl 5-cyclopropyl-3-(2,6-dichlorophenyl)-1,2-oxazole-4-carboxylate], for which the Emax in assay [1] came out at 81%; in assay [2], 58%. Moreover, the EC50 in assay [1] is 251 nM.

On to `O=C(O)c1ncc(N2[C@@H]3CC[C@H]2C[C@@H](OC(=O)c2c(-c4c(Cl)cccc4Cl)noc2C2CC2)C3)cn1` [Compound I-54, 5-[(1R,3R,5S)-3-[5-Cyclopropyl-3-(2,6-dichlorophenyl)-1,2-oxazole-4-carbonyloxy]-8-azabicyclo[3.2.1]octan-8-yl]pyrimidine-2-carboxylic Acid], for which the Emax in assay [1] worked out at 115%; in assay [2], 46%. Further, the EC50 in assay [1] was greater than 20000 nM.

As to `O=C(O)c1cc(F)cc(S(=O)(=O)N2[C@@H]3CC[C@H]2C[C@@H](OC(=O)c2c(-c4c(Cl)cccc4Cl)noc2C2CC2)C3)c1` [Compound I-56, 3-{[(1R,3R,5S)-3-[5-cyclopropyl-3-(2,6-dichlorophenyl)-1,2-oxazole-4-carbonyloxy]-8-azabicyclo[3.2.1]octan-8-yl]sulfonyl}-5-fluorobenzoic Acid], in assay [1], the Emax was determined as 78% and the EC50 is 631 nM. In assay [2], the Emax came to 56%.

As for `O=C(O)c1cc(OC(F)(F)F)c2nc(N3[C@@H]4CC[C@H]3C[C@@H](OC(=O)c3c(C56CCC(CC5)CC6)noc3C3CC3)C4)sc2c1` [Compound I-57, 2-[(1R,3R,5S)-3-(3-{bicyclo[2.2.2]octan-1-yl}-5-cyclopropyl-1,2-oxazole-4-carbonyloxy)-8-azabicyclo[3.2.1]octan-8-yl]-4-(trifluoromethoxy)-1,3-benzothiazole-6-carboxylic Acid], in assay [1], the Emax turned out to be 33% and the EC50 was 398 nM. Moreover, in assay [2], the Emax came to 26%.

Consider `COC12CCC(c3noc(C4CC4)c3C(=O)O[C@@H]3C[C@H]4CC[C@@H](C3)N4c3nc4c(OC(F)(F)F)cc(C(=O)O)cc4s3)(CC1)CC2` [Compound I-58, 2-[(1R,3S,5S)-3-(5-cyclopropyl-3-{4-methoxybicyclo[2.2.2]octan-1-yl}-1,2-oxazole-4-carbonyloxy)-8-azabicyclo[3.2.1]octan-8-yl]-4-(trifluoromethoxy)-1,3-benzothiazole-6-carboxylic Acid], for which the “FXR pEC50” value in assay [1] is reported as greater than 4.5. For the same molecule, in assay [2], the “FXR pEC50” value is greater than 4.4 and the “% Efficacy” value was 22%.
